Results as given in patent publication US11738031B2, “Compositions and methods for preventing or treating muscle conditions” (The Board of Trustees of the Leland Stanford Junior …, priority 2017, dated 2023).
“Also recorded” adds a separate entry of the source.

Assays:
[1] = system: endogenous MuSCs in TA muscle; test: Endogenous MuSC BLI in Pax7CreERT2;Rosa26-LSL-Luc mice after cardiotoxin injury; format: in vivo, mouse; conditions: single indomethacin injection three days post-cardiotoxin injury
Method: Bioluminescence imaging: We performed bioluminescence imaging (BLI) using a Xenogen-100 system, as previously described^1,5,6. Briefly, we anesthetized mice using isofluorane inhalation and administered 120 μL D-luciferin (0.1 mmol kg^−1, reconstituted in PBS; Caliper LifeSciences) by intraperitoneal injection. We acquired BLI using a 60 s exposure at F-stop=1.0 at 5 minutes after luciferin injection. Digital images were recorded and analyzed using Living Image software (Caliper LifeSciences). We analyzed images with a consistent region-of-interest (ROI) placed over each hindlimb to calculate a bioluminescence signal. We calculated a bioluminescence signal in radiance (p s^−1 cm^−2 sr^−1) value of 10^4 to define an engraftment threshold. This radiance threshold of 10^4 is approximately equivalent to the total flux threshold in p/s reported previously. This BLI threshold corresponds to the histological detection of one or more GFP+ myofibers^1,5,6. We performed BLI imaging every week after transplantation. […]
We performed bioluminescence imaging (BLI) using a Xenogen-100 system, as previously described (24, 26, 27, 30). […] Digital images were recorded and analyzed using Living Image software (Caliper LifeSciences). We analyzed images with a consistent region-of-interest (ROI) placed over each hindlimb to calculate a bioluminescence signal. We calculated a bioluminescence signal in radiance (p s^−1 cm^−2 sr^−1) value of 10^4 to define an engraftment threshold. […]
Bioluminescent Imaging: For bioluminescence imaging (BLI), we anesthetized mice using isofluorane inhalation and administered 120 μL D-luciferin (0.1 mmol kg^−1, reconstituted in PBS; Caliper LifeSciences) by intraperitoneal injection. […] Digital images were recorded and analyzed using Living Image software (Caliper LifeSciences). We analyzed images with a consistent region-of-interest (ROI) placed over each hindlimb to calculate a bioluminescence signal. We calculated a bioluminescence signal in radiance (p s^−1 cm^−2 sr^−1) value of 10^4 to define an engraftment threshold. […]

TA muscle = test: In vivo muscle force at day 14 post-injury (TA); parameters: species or system mouse
Method: We used an injury model entailing intramuscular injection of 10 μl of notexin (10 μg ml^−1; Latoxan, catalog #L8104) or cardiotoxin (10 μM; Latoxan, catalog #L8102) into the Tibialis anterior (TA) muscle. For cryoinjury, an incision was made in the skin overlying the TA muscle and a copper probe, chilled in liquid nitrogen, was applied to the TA muscle for three 10 s intervals, allowing the muscle to thaw between each application of the cryoprobe. When indicated, 48 hr after injury either 16,16-Dimethyl Prostaglandin E2 (dmPGE2) (13 nmol, Tocris, catalog #4027), Indomethacin (35 μg, Sigma, catalog #17378) or vehicle control (PBS) was injected into the TA muscle. The contralateral TA was used as an internal control, except for the force measurement experiments where each mouse had both legs injured with the same condition and independent mice were used for each condition.
Mice were injured as described in the Muscle injury section. […] Data were collected with a PCI-6251 acquisition card (National Instruments) and analyzed in Matlab. We calculated specific force values by normalizing the force measurements by the muscle physiological cross-sectional areas (PCSAs), which were similar between groups. PCSA (measured in mm^2) was calculated according to the following equation (55): PCSA (mm^2)=[mass (g)×Cos θ]÷[ρ (g/mm^3)×fiber length (mm)], […]

[2] = system: PGE2 levels of conditioned medium from isolated fibers; test: PGE2 ELISA of conditioned medium from isolated fibers; format: cell-based, mouse; conditions: indomethacin 1 μM, 24 hours
Method: For conditioned medium assays, muscle fibers from the extensor digitorum longus (EDL) were isolated as previously described (53). Fibers were cultured in stripped serum medium in the presence or absence of indomethacin (1 μM, Sigma) for 24 hours. Conditioned medium was collected and measured using the PGE2 ELISA Kit (R&D Systems, catalog #KGE004B) and expressed relative to the collected volume (ml). Each sample was assayed in triplicate and in two independent experiments. […]

[3] = system: muscle stem cells (MuSCs); test: MuSC proliferation in culture, cell number count (hemocytometer); format: cell-based, mouse; conditions: ONO-AE3-208 1 μM with PGE2 10 ng/ml, 24 hr treatment
Method: (§1) Muscle stem cell culture, treatment and lentiviral infection: Following isolation, we resuspended MuSCs in myogenic cell culture medium containing DMEM/F10 (50:50), 15% FBS, 2.5 ng ml^−1 fibroblast growth factor-2 (FGF-2 also known as bFGF) and 1% penicillin-streptomycin. We seeded MuSC suspensions at a density of 500 cells per cm^2 surface area. We maintained cell cultures at 37° C. in 5% CO2 and changed medium daily. For PGE2, 15-PGDH inhibitor and EP4 receptor antagonist treatment studies, we added 1-200 ng/ml Prostaglandin E2 (Cayman Chemical) (unless specified in the figure legends, 10 ng/ml was the standard concentration used), and/or 1 μM EP4 antagonist (ONO-AE3-208, Cayman Chemical), or 1 μM 15-PGDH inhibitor (SW033291, Cayman Chemical) to the MuSCs cultured on collagen coated dishes for the first 24 h. The cells were then trypsinized and cells reseeded onto hydrogels for an additional 6 days of culture. All treatments were compared to their solvent (DMSO) vehicle control. For stripped serum assays, we resuspended isolated MuSCs in medium containing DMEM/F10 (50:50), 15% charcoal stripped FBS (Gibco, cat #12676011), 2.5 ng ml^−1 bFGF and 1% penicillin-streptomycin. […]
Proliferation assays: To assay proliferation, we used three different assays (hemocytometer, VisionBlue, and EdU). […] For hemocytometer cell number count, we collected cells at indicated timepoints by incubation with 0.5% trypsin in PBS for 5 min at 37° C. and quantified them using a hemocytometer at least 3 times. Additionally, we used the VisionBlue Quick Cell Viability Fluorometric Assay Kit (BioVision, catalog #K303) as a readout for cell growth in culture. Briefly, we incubated MuSCs with 10% VisionBlue in culture medium for 3 h, and measured fluorescence intensity on a fluorescence plate reader (Infinite M1000 PRO, Tecan) at Ex=530-570 nm, Em=590-620 nm. […] We quantified EdU positive cells using the MetaMorph Image Analysis software (Molecular Devices). Data analyses were blinded, where researchers performing cell scoring were unaware of the treatment condition given to sample groups analyzed. […]

aged MuSCs = test: Aged MuSC proliferation in culture; format: cell-based, mouse; conditions: PGE2 10 ng/ml or SW033291 1 μM, 24 hr, assayed at day 7
Method: as §1
Proliferation assays: To assay proliferation, we used three different assays (hemocytometer, VisionBlue, and EdU). […] For hemocytometer cell number count, we collected cells at indicated timepoints by incubation with 0.5% trypsin in PBS for 5 min at 37° C. and quantified them using a hemocytometer at least 3 times. Additionally, we used the VisionBlue Quick Cell Viability Fluorometric Assay Kit (BioVision, catalog #K303) as a readout for cell growth in culture. Briefly, we incubated MuSCs with 10% VisionBlue in culture medium for 3 h, and measured fluorescence intensity on a fluorescence plate reader (Infinite M1000 PRO, Tecan) at Ex=530-570 nm, Em=590-620 nm. […] We quantified EdU positive cells using the MetaMorph Image Analysis software (Molecular Devices). Data analyses were blinded, where researchers performing cell scoring were unaware of the treatment condition given to sample groups analyzed.

**Q.** For `COc1ccc2c(c1)c(CC(=O)O)c(C)n2C(=O)c1ccc(Cl)cc1` [indomethacin], which “luciferase activity (BLI) of endogenous MuSCs after indomethacin” value [1] is on record?
**A.** significant decrease in luciferase activity; also recorded: decline in BLI relative to controls

**Q.** And the “reduction in twitch force compared to controls” value (TA muscle; NSAID (indomethacin) treatment, day 14 post-cardiotoxin)?
**A.** 33±7%

**Q.** What about the “Twitch force vs control group” value (TA muscle; indomethacin into cardiotoxin-injured muscles, day 14 post-injury) of the same compound?
**A.** significant loss in Twitch force

**Q.** And the “PGE2 synthesis by isolated myofibers” value [2]?
**A.** markedly reduced

**Q.** How did the “proliferation induced by PGE2 in the presence of EP4 antagonist” value [3] turn out when `CC(C(=O)Nc1cc(C#N)ccc1CCCC(=O)O)c1ccc(F)c2ccccc12` (stereo not drawn) [ONO-AE3-208] was run?
**A.** blunted

**Q.** With `CCCC[S+]([O-])c1sc2nc(-c3cccs3)cc(-c3ccccc3)c2c1N` (stereo not drawn) [SW033291] as the compound, how does the “aged MuSC proliferation and Pax7 expression after 1-day pulse” value (aged MuSCs) read?
**A.** characteristic increase in proliferation and maintenance of Pax7 expression
